Values of other authors in patent US20040224037A1, “Devastating treatment against hiv/aids with capsaicin” (priority 2003, published 2004).
Like-named read-outs stand apart in the source and are kept apart here. Ends that are not written are not given here.

How the values were obtained:
[1] = system: proliferating macrophages from the blood of four patients with AIDS dementia
rats [2] = details: iv. treatment, also printed 0.5 mg/kg
rats [3] = details: higher doses reduced acid output
b-endorphin = details: rats; 3,5,7 and 15 days after Capsaicin administration
[4] = system: enzyme (cyp2e1) of cytochrome p4502e1; details: in the liver
rats [5] = details: 18 mcg/kg injected, anesthesia, pretreatment 4,8,16 and 200 mg/kg each 12 hours
rats [6] = details: for blood pressure and heart rate after pretreatment: previous anesthesia, Capsaicin pretreatment 100 mg during four days
tongue = details: Nelson 1910
[7] = system: [4-(methylnitrosamino)-1-(3-pyridyl)-1-butanone] nnk
cats and dogs = details: 50 mcg/kg iv. in cats and dogs
[8] = system: intestinal glucose absorption; details: 140 mcg/ml, rats in vitro
dogs [9] = system: dogs
dogs [10] = details: 10 mcg/kg iv. in dogs
[11] = Capsaicin administration at high concentration
macrophages = details: in vitro
herpes simplex = details: sc. administration, rats infected with herpes simplex
substance p(sp) = details: pretreatment with Capsaicin in rats
[12] = system: histamine and 5-hydroxitryptamine; details: treatment with Capsaicin in rats
[13] = system: guinea pig peritoneal macrophages
nk cells = details: deviation of more or less 11.5%
masT cells = details: suspensions of mast cells in rats
Sprague-Dawley cd rats = details: pregnant rats, 0, 500 or 5000 mg/kg/day

Sequence of enzyme (cyp2e1) of cytochrome p4502e1 (P05181 whole entry, species assumed): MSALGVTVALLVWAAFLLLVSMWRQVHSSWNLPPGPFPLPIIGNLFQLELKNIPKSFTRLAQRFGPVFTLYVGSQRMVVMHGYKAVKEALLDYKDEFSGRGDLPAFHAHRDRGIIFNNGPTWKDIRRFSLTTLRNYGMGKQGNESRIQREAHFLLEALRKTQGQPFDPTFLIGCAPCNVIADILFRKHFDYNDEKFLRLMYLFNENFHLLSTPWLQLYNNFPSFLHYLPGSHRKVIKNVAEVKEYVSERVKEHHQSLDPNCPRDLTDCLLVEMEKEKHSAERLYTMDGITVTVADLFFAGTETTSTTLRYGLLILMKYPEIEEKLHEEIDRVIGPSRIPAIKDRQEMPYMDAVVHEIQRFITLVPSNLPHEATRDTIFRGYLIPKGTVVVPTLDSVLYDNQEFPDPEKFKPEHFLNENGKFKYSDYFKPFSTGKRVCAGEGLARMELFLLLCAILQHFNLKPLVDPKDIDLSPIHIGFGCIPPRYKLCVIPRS

Molecule: CCNCCCNC[C@@H]1CC[C@H]1CNCCCNCC.Cl.Cl.Cl.Cl (relative stereo) [SL-11038, N-ethyl-N′-(2-(3′-ethylamino-propylaminomethyl)-trans-cyclobutylmethyl)-propane 1,3-diamine tetrahydrochloride]
- effect on proliferating macrophages [1]: potent effect of inhibition

Molecule: CCNCCCNC[C@@H]1C[C@H]1CNCCCNCC.Cl.Cl.Cl.Cl (relative stereo) [SL-11044, N-ethyl-N′-(2-(3′-ethylamino-propylaminomethyl)-trans-cyclopropylmethyl)-propane 1,3-diamine tetrahydrochloride]
- effect on proliferating macrophages [1]: potent effect of inhibition

Molecule: CCNCCCCNCCCCNCCCCNCCCCNCC [BE-4444, 1,19-bis(ethylamino)-5,10,15-triazanonadecane]
- effect on proliferating macrophages [1]: potent effect of inhibition

Molecule: COc1cc(CNC(=O)CCCC/C=C/C(C)C)ccc1O [Capsaicin, 8-methyl-n-vanillyl-6-nonenamide]
- letal dose (rats [2]): 500 µg/kg
- effect on growth / activity (Streptococcus pyogenes): did not show activity
- effect of iv. dose (cats; 200 mcg/kg iv. in cats): bradycardia, apnea
- tension reduction (cats; 200 mcg/kg iv. in cats): 46 mmhg
- effect of iv. dose (cats; 400 mcg/kg iv. in cats): higher post-hypotension and a second period of apnea
- dose at which acid secretory response reached a maximum (rats [3]): 1000 µg/kg
- effect on growth / activity (Bacillus subtilis): did not show activity
- time for area of hyperalgesia to reach a maximum (humans; 10 mcg intradermal): ≤ 5 min
- time to disappearance of hyperalgesia (humans; 10 mcg intradermal): ≤ 15 min
- time for area of hyperalgesia to reach a maximum (humans; 100 mcg intradermal): ≤ 7 min
- time to disappearance of hyperalgesia (humans; 100 mcg intradermal): ≤ 137 min
- b-endorphin concentration in the hypothalamus (b-endorphin): decreased
- effect on growth / activity (Clostridium sporogenes): did not show activity
- activity of enzyme cyp2e1 [4]: capable to inhibit
- Bezold-Jarisch reflex after pretreatment (rats [5]): significant inhibition of the Bezold-Jarisch reflex
- blood pressure and heart rate after pretreatment (rats [6]; 1 mcg injected, rats): normal blood pressure and rate of the heart
- effect of iv. dose on blood pressure and heart rate (rats [6]; 1 mcg or 3 mcg/kg iv. in rats): reproduced three phases
- blood pressure and heart rate after pretreatment (rats [6]; 50 mcg slow infusion over 12 mins): normal blood pressure and rate of the heart
- GLINSUKON EXP (LD50) (mice; ig. adm, mice): 67 mg/kg
- GLINSUKON EXP (LD50), value in brackets (mice; ig. adm, mice, second value in brackets): 190 mg/kg
- GLINSUKON EXP (LD50) (mice; iv. adm, mice): 0.5 mg/kg
- LD50 (mice; iv., male mice): 0.56 mg/kg
- GLINSUKON EXP (LD50) (mice; sc. adm, mice): 8.5 mg/kg
- toxicity effect measured by LD50 compared between routes (mice; sc., im., and intraperitoneal (ip.), mice): similar
- concentration giving perceptible warmth on tongue (tongue; 1 ppm): 1 µg/mL
- concentration giving persistent burning on tongue (tongue; 10 ppm): 10 µg/mL
- effect on growth / activity (Bacillus cereus): did not show activity
- effect on tobacco specific carcinogen nnk [7]: inhibited
- blood pressure (cats and dogs): fast fallen in blood pressure
- drop of the pulse, first value (cats and dogs): 108 min⁻¹
- drop of the pulse, second value (cats and dogs): 24 min⁻¹
- subsequent tachycardia (cats and dogs): 160 min⁻¹
- activity (Candida albicans): did not show activity
- intestinal glucose absorption [8]: inhibitory effect
- respiratory effect (dogs [9]; administration rate 10-20 mcg/kg/min, dogs): fast superficial respiration, but without apnea
- respiratory effect (dogs [9]; injected 0.5-20 mcg/kg, dogs anesthetised with chloralose): apnea, followed by a fast superficial respiration
- growth (cancer) (cancer): inhibit growth at low concentration
- activity (Escherichia coli): did not show activity
- effect of iv. dose (dogs [10]): apnea, bradycardia, hypotension
- activity (Staphylococcus aureus): did not show activity
- time after which recovery of the desensitization is not complete [11]: > 60 days
- production of anions superoxides, peroxide of hydrogen and nitrites by macrophages (macrophages; 10 mcm): completely inhibited
- activity (Salmonella typhimurium): did not show activity
- mortality (herpes simplex): reduced mortality
- effect upon the substance p(sp) at intestinal level (substance p(sp)): did not have effect
- histamine and 5-hydroxitryptamine [12]: increment

Molecule: CCNCCCNCCCNCCCNCC [Denop, diethylnospermine]
- effect on proliferating macrophages [1]: potent effect of inhibition

Molecule: CCNCCCNC[C@@H]1C[C@@H]1CNCCCNCC.Cl.Cl.Cl.Cl [SL-11037, n-ethyl-n′-(2-(3′-ethylamino-propylaminomethyl)-cis-cyclopropylmethyl)-propane 1,3-diamine tetrahydrochloride]
- effect on proliferating macrophages [1]: potent effect of inhibition

Molecule: CCNCCCNC/C=C\CNCCCNCC.Cl.Cl.Cl.Cl [SL-11047, N′-bis (3-ethylaminopropyl)-cis-but-2-ene-1,4-diamine tetrahydrochloride]
- effect on proliferating macrophages [1]: potent effect of inhibition

Molecule: CCNCCCNC/C=C/CNCCCNCC [SL-11048]
- effect on proliferating macrophages [1]: potent effect of inhibition

Molecule: CN1[C@@H]2CC[C@H]1C[C@@H](OC(=O)C(CO)c1ccccc1)C2 (some centres unmarked) [atropine]
- counteraction of the effect of Capsaicin (rats [6]; rat, in vivo): able to counteract the effect of Capsaicin

Molecule: COc1cc(CNC(=O)CCCCCCC(C)C)ccc1O [dihydroCapsaicin, 8-methylnonanoic acid vanillylamide]
- effect on growth / activity (Streptococcus pyogenes): did not show activity
- effect on growth / activity (Bacillus subtilis): did not show activity
- effect on growth / activity (Clostridium sporogenes): did not show activity
- effect on growth / activity (Bacillus cereus): did not show activity
- activity (Candida albicans): did not show activity
- activity (Escherichia coli): did not show activity
- activity (Staphylococcus aureus): did not show activity
- activity (Salmonella typhimurium): did not show activity

Molecule: CCO [ethanol]
- blood alcohol concentration (human; 0.5 fluid ounces (about 15 ml) in a 150 pound human): 0.02%
- blood alcohol concentration that starts to produce measurable mental impairment (human; in vivo): 0.05%
- fraction processed by the liver (human; in vivo): over 90%

Molecule: C=CCc1ccc(O)c(OC)c1 [eugenol]
- concentration required to completely inhibit reactive oxygen species, compared with Capsaicin (macrophages): Higher concentrations

Molecule: arg-pro-lys-pro-gln-gln-phe-phe-gly-leu-met-nh2 (RPKPQQFFGLM-NH2; UniProt P20366 58-68, looked up) [Substance p (sp), undecapeptide neuropeptide]
- phagocytosis (human leucocytes): stimulates phagocytosis
- macrophage activation, liberation of reactive oxygen species [13]: activated such macrophages
- phagocytosis (macrophages of mice): stimulates phagocytosis

Molecule: b-endorphin: group of protein with potent analgesic properties that occur naturally in the brain (YGGFMTSEKSQTPLVTLFKNAIIKNAYKKGE; Beta-endorphin; UniProt P01189 237-267, looked up)
- proliferative response of lymphocytes (lymphocytes): increases
- increase of activity of nk cells (nk cells): 30.5%

Molecule: kallidin: neuropeptide provoking histamine release (KRPPGFSPFR; Lysyl-bradykinin; UniProt P01042 380-389, looked up)
- power in provoking histamine release, compared with substance p and polisteskinin (masT cells): Less powerful

Molecule: methionyl-lysyl-bradykinin
- power in provoking histamine release, compared with substance p and polisteskinin (masT cells): Less powerful

Molecule: polyoxyethylene sorbitan monooleate [tw80]
- signs of toxicity (Sprague-Dawley cd rats): no dose-related signs of toxicity
